Results on 53 compounds are retold here after the supplement of paper PMC12137928.

Counter-ions that a name gives are not always drawn.

The test system of the experiment is HCT116. The settings on record: 72 h. Put shortly: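 Four-parameter Hill fits gave IC50 and maximal efficacy. The data were CellTiter-Glo luminescence readings in HCT116 cells, normalized so that vehicle was 0% and positive control was -100%, with pattern correction afterwards.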

`OC(CCN1CCCCC1)(c1ccccc1)C1CCCC1` (stereo unspecified) [Cycrimine Hydrochloride]: the IC50 cell viability was over 45.8 µM (ICRF193 0 nM) and over 45.8 µM (ICRF193 200 nM).

Turning to `COc1ccc(C(=O)c2ccccc2O)c(O)c1` [2,2'-Dihydroxy-4-methoxybenzophenone], the IC50 cell viability by setting is: (ICRF193 0 nM) over 45.8 µM; (ICRF193 200 nM) over 45.8 µM.

On to `O=C(OCC(O)CO)c1ccccc1Nc1ccnc2cc(Cl)ccc12` (stereo unspecified) [Glafenine hydrochloride], for which the IC50 cell viability is over 45.8 µM (ICRF193 0 nM) and over 45.8 µM (ICRF193 200 nM).

Regarding `CC(C)(C)NCC(O)COc1cccc2c1CCC(=O)N2` (stereo unspecified) [Carteolol hydrochloride], the IC50 cell viability reads like this: (ICRF193 0 nM) over 45.8 µM; (ICRF193 200 nM) over 45.8 µM.

In the case of `C[C@]12C[C@H]3S[C@H]3C[C@@H]1CC[C@@H]1[C@@H]2CC[C@]2(C)[C@@H](O)CC[C@@H]12` [Epitiostanol], the IC50 cell viability runs as follows: (ICRF193 0 nM) over 45.8 µM; (ICRF193 200 nM) over 45.8 µM.

Take `CN1C2CCCC1CC(NC(=O)c1nn(C)c3ccccc13)C2` (stereo unspecified) [Granisetron (AB-1001)]: the IC50 cell viability was over 45.8 µM (ICRF193 0 nM) and over 45.8 µM (ICRF193 200 nM).

As to `CCCCC(=O)N(Cc1ccc(-c2ccccc2-c2nnn[nH]2)cc1)[C@H](C(=O)O)C(C)C` [VALSARTAN], the IC50 cell viability runs as follows: (ICRF193 0 nM) over 45.8 µM; (ICRF193 200 nM) over 45.8 µM.

`Cc1c(C(C)C)c(=O)n(-c2ccccc2)n1C` [Propyphenazone]: the IC50 cell viability is over 45.8 µM (ICRF193 0 nM) and over 45.8 µM (ICRF193 200 nM).

As to `O=C(C1CCCCC1)N1CC(=O)N2CCCc3ccccc3C2C1` (stereo unspecified) [Epsiprantel], the IC50 cell viability was over 45.8 µM (ICRF193 0 nM) and over 45.8 µM (ICRF193 200 nM).

On to `CCCC(=O)OC(C(Cl)(Cl)Cl)P(=O)(OC)OC` (stereo unspecified) [Butonate], for which the IC50 cell viability reads like this: (ICRF193 0 nM) over 45.8 µM; (ICRF193 200 nM) over 45.8 µM.

As to `CCNCC(O)c1cccc(O)c1` (stereo unspecified) [Etilefrine hydrochloride], the IC50 cell viability reads like this: (ICRF193 0 nM) over 45.8 µM; (ICRF193 200 nM) over 45.8 µM.

With `NNC(=O)c1ccncc1` [Isoniazid], the IC50 cell viability is over 45.8 µM (ICRF193 0 nM) and over 45.8 µM (ICRF193 200 nM).

Regarding `CC1(C)O[C@H]2CC(=O)OC[C@]23[C@H]2CC[C@@]4(C)[C@H](c5ccoc5)OC(=O)[C@H]5O[C@]54[C@]2(C)C(=O)C[C@@H]13` [Limoni], the IC50 cell viability is over 45.8 µM (ICRF193 0 nM) and over 45.8 µM (ICRF193 200 nM).

As for `CC(=O)O[C@@H]1C(=O)O[C@H]2[C@@H]1OC(=O)[C@@H]2OC(C)=O` [Aceglatone], the IC50 cell viability was over 45.8 µM (ICRF193 0 nM) and over 45.8 µM (ICRF193 200 nM).

Take `O=C(O)CCC(=O)OC[C@@H](NC(=O)C(Cl)Cl)[C@H](O)c1ccc([N+](=O)[O-])cc1` [Chloramphenicol sodium succinate]: the IC50 cell viability by setting is: (ICRF193 0 nM) over 45.8 µM; (ICRF193 200 nM) over 45.8 µM.

For the compound `C[C@H](N)C(=O)N[C@@H](C)C(=O)N[C@H]1[C@@H]2CN(c3nc4c(cc3F)c(=O)c(C(=O)O)cn4-c3ccc(F)cc3F)C[C@@H]21` [Alatrofloxacin mesylate], the IC50 cell viability (ICRF193 0 nM) was over 45.8 µM and the IC50 cell viability (ICRF193 200 nM) was over 45.8 µM.

Consider `O=C(O)CCC(=O)c1ccc(-c2ccccc2)cc1` [Fenbufen], for which the IC50 cell viability is over 45.8 µM (ICRF193 0 nM) and over 45.8 µM (ICRF193 200 nM).

In turn, `CC(=O)OCC1=C(C(=O)O)N2C(=O)[C@@H](NC(=O)Cc3cccs3)[C@H]2SC1` [Cephalothin] came in with an IC50 cell viability (ICRF193 0 nM) of over 45.8 µM and an IC50 cell viability (ICRF193 200 nM) of over 45.8 µM.

Consider `CS(=O)(=O)OCCCCOS(C)(=O)=O` [Busulfan], for which the IC50 cell viability by setting is: (ICRF193 0 nM) over 45.8 µM; (ICRF193 200 nM) over 45.8 µM.

As for `C=CC1=C(C(=O)O)N2C(=O)[C@@H](NC(=O)/C(=N\OCC(=O)O)c3csc(N)n3)[C@H]2SC1` [Cefixime], the IC50 cell viability by setting is: (ICRF193 0 nM) over 45.8 µM; (ICRF193 200 nM) over 45.8 µM.

On to `Cc1c(-c2ccccc2)oc2c(C(=O)OCCN3CCCCC3)cccc2c1=O` [Flavoxate hydrochloride], for which the IC50 cell viability was over 45.8 µM (ICRF193 0 nM) and over 45.8 µM (ICRF193 200 nM).

Consider `N[C@H](CCC(=O)O)C(=O)O` [D-Glutamic acid], for which the IC50 cell viability is, setting by setting: (ICRF193 0 nM) over 45.8 µM; (ICRF193 200 nM) over 45.8 µM.

Regarding `C=CCCCCCCCCC(=O)O[C@H]1CC[C@H]2[C@@H]3CCC4=CC(=O)C=C[C@]4(C)[C@H]3CC[C@]12C` [Boldenone Undecylenate], the IC50 cell viability is over 45.8 µM (ICRF193 0 nM) and over 45.8 µM (ICRF193 200 nM).

As for `CCS(=O)(=O)CCn1c([N+](=O)[O-])cnc1C` [Tinidazole], the IC50 cell viability is over 45.8 µM (ICRF193 0 nM) and over 45.8 µM (ICRF193 200 nM).

Take `CC(C(O)c1ccccc1)N(C)C/C=C/c1ccccc1` (stereo unspecified) [Cinnamedrine]: the IC50 cell viability is over 45.8 µM (ICRF193 0 nM) and over 45.8 µM (ICRF193 200 nM).

As for `O=c1[nH]cnc2c1ncn2[C@@H]1O[C@H](CO)[C@@H](O)[C@H]1O` [(-)-Inosine], the IC50 cell viability is, setting by setting: (ICRF193 0 nM) over 45.8 µM; (ICRF193 200 nM) over 45.8 µM.

As to `Nc1ccc(C(=O)NCC(=O)O)cc1` [Aminohippuric acid], the IC50 cell viability reads like this: (ICRF193 0 nM) over 45.8 µM; (ICRF193 200 nM) over 45.8 µM.

On to `CC(=O)NCCCS(=O)(=O)O` [Acamprosate Calcium], for which the IC50 cell viability is over 45.8 µM (ICRF193 0 nM) and over 45.8 µM (ICRF193 200 nM).

Take `CC1=C(C(=O)O)N2C(=O)[C@@H](NC(=O)[C@H](N)C3=CCC=CC3)[C@H]2SC1` [CEPHRADINE]: the IC50 cell viability runs as follows: (ICRF193 0 nM) over 45.8 µM; (ICRF193 200 nM) over 45.8 µM.

In the case of `CC1(C)OC(=O)C(OCC2CC2)=C1c1ccc(S(C)(=O)=O)cc1` [FIROCOXIB], the IC50 cell viability was over 45.8 µM (ICRF193 0 nM) and over 45.8 µM (ICRF193 200 nM).

`CC1(C)S[C@@H]2[C@H](NC(=O)C(C(=O)O)c3ccccc3)C(=O)N2[C@H]1C(=O)O` (stereo partly specified) [Carbenicillin disodium]: the IC50 cell viability runs as follows: (ICRF193 0 nM) over 45.8 µM; (ICRF193 200 nM) over 45.8 µM.

Consider `COC(=O)[C@@H](N)CS` [L-Cysteine methyl ester hydrochloride], for which the IC50 cell viability runs as follows: (ICRF193 0 nM) over 45.8 µM; (ICRF193 200 nM) over 45.8 µM.

For `CCOc1ccccc1OCCN[C@H](C)Cc1ccc(OC)c(S(N)(=O)=O)c1` [Tamsulosin hydrochloride], the IC50 cell viability was over 45.8 µM (ICRF193 0 nM) and over 45.8 µM (ICRF193 200 nM).

As for `CCC(=O)O[C@]1(C(=O)COC(C)=O)CC[C@H]2[C@@H]3CCC4=CC(=O)CC[C@]4(C)[C@H]3[C@@H](O)C[C@@]21C` [HYDROCORTISONE ACEPONATE], the IC50 cell viability runs as follows: (ICRF193 0 nM) over 45.8 µM; (ICRF193 200 nM) over 45.8 µM.

As to `CCCc1nc2c(C)cc(-c3nc4ccccc4n3C)cc2n1Cc1ccc(-c2ccccc2C(=O)O)cc1` [Telmisartan], the IC50 cell viability was over 45.8 µM (ICRF193 0 nM) and over 45.8 µM (ICRF193 200 nM).

Regarding `CCCCN(CCCC)C(=S)[S-].CCCCN(CCCC)C(=S)[S-].[Zn+2]` [Zinc dibutyldithiocarbamate], the IC50 cell viability runs as follows: (ICRF193 0 nM) over 45.8 µM; (ICRF193 200 nM) over 45.8 µM.

As to `CCN(CC)CCOC(=O)c1ccc(N)cc1Cl` [Chloroprocaine HCl], the IC50 cell viability runs as follows: (ICRF193 0 nM) over 45.8 µM; (ICRF193 200 nM) over 45.8 µM.

With `O=C(O)c1ccccc1Nc1cccc(C(F)(F)F)c1` [Flufenamic acid], the IC50 cell viability reads like this: (ICRF193 0 nM) over 45.8 µM; (ICRF193 200 nM) over 45.8 µM.

`CC1CNc2c(cccc2S(=O)(=O)N[C@@H](CCCNC(=N)N)C(=O)N2CC[C@@H](C)C[C@@H]2C(=O)O)C1` (stereo partly specified) [Argatroban]: the IC50 cell viability is, setting by setting: (ICRF193 0 nM) over 45.8 µM; (ICRF193 200 nM) over 45.8 µM.

As for `CC1(C)S[C@@H]2[C@H](NC(=O)[C@H](N)c3ccc(O)cc3)C(=O)N2[C@H]1C(=O)O` [Amoxicillin sodium], the IC50 cell viability is over 45.8 µM (ICRF193 0 nM) and over 45.8 µM (ICRF193 200 nM).

Turning to `NCCC(=O)[N-][C@@H](Cc1c[nH]cn1)C(=O)[O-].[Zn+2]` [Polaprezinc], the IC50 cell viability runs as follows: (ICRF193 0 nM) over 45.8 µM; (ICRF193 200 nM) over 45.8 µM.

In the case of `CC1=Nc2ccc(Cl)cc2S(=O)(=O)N1` [Diazoxide], the IC50 cell viability runs as follows: (ICRF193 0 nM) over 45.8 µM; (ICRF193 200 nM) over 45.8 µM.

`CCC1NC(=O)c2cc(S(N)(=O)=O)c(Cl)cc2N1` (stereo unspecified) [Quinethazone]: the IC50 cell viability was over 45.8 µM (ICRF193 0 nM) and over 45.8 µM (ICRF193 200 nM).

With `CCCc1nc(C(C)(C)O)c(C(=O)O)n1Cc1ccc(-c2ccccc2-c2nnn[nH]2)cc1` [Olmesartan], the IC50 cell viability by setting is: (ICRF193 0 nM) over 45.8 µM; (ICRF193 200 nM) over 45.8 µM.

Compound `NC(=Nc1ccccc1)Nc1ccccc1` [1,3-Diphenylguanidine] registered an IC50 cell viability (ICRF193 0 nM) of over 45.8 µM and an IC50 cell viability (ICRF193 200 nM) of over 45.8 µM.

`C[C@H](CS)C(=O)N1CCC[C@H]1C(=O)O` [Captopril]: the IC50 cell viability is over 45.8 µM (ICRF193 0 nM) and over 45.8 µM (ICRF193 200 nM).

As to `CCCCCN(CCCOC)C(=O)C(CCC(=O)O)NC(=O)c1ccc(Cl)c(Cl)c1` (stereo unspecified) [Loxiglumide], the IC50 cell viability reads like this: (ICRF193 0 nM) over 45.8 µM; (ICRF193 200 nM) over 45.8 µM.

In the case of `CO/N=C(\C(=O)N[C@@H]1C(=O)N2C(C(=O)O)=C(CSC(=O)c3ccco3)CS[C@H]12)c1csc(N)n1` [CEFTIOFUR HYDROCHLORIDE], the IC50 cell viability by setting is: (ICRF193 0 nM) over 45.8 µM; (ICRF193 200 nM) over 45.8 µM.

Regarding `CCn1cc(C(=O)O)c(=O)c2cnc(N3CCNCC3)nc21` [Pipemidic acid], the IC50 cell viability is, setting by setting: (ICRF193 0 nM) over 45.8 µM; (ICRF193 200 nM) over 45.8 µM.

Consider `Cc1ccc([C@@H]2O[C@H](CO)[C@@H](O)[C@H](O)[C@H]2O)cc1Cc1ccc(-c2ccc(F)cc2)s1` [Canagliflozin], for which the IC50 cell viability is, setting by setting: (ICRF193 0 nM) over 45.8 µM; (ICRF193 200 nM) over 45.8 µM.

As for `OC[C@H]1O[C@H](O[C@H]2[C@H](O)[C@@H](O)C(O)O[C@@H]2CO)[C@H](O)[C@@H](O)[C@@H]1O` (stereo partly drawn) [D-(+)-MALTOSE], the IC50 cell viability was over 45.8 µM (ICRF193 0 nM) and over 45.8 µM (ICRF193 200 nM).

Consider `O=C(O)c1ccc(NC(=O)[C@H](Cc2ccc(O)cc2)NC(=O)c2ccccc2)cc1` [Bentiromide sodium], for which the IC50 cell viability was over 45.8 µM (ICRF193 0 nM) and over 45.8 µM (ICRF193 200 nM).

On to `CCCCC(C)(O)C/C=C/[C@H]1[C@H](O)CC(=O)[C@@H]1CCCCCCC(=O)OC` (mixture of isomers) [Misoprostol], for which the IC50 cell viability was over 45.8 µM (ICRF193 0 nM) and over 45.8 µM (ICRF193 200 nM).
